Reference: patent publication US20250050053A1, “METHOD OF TREATMENT AND SELECTION OF PATIENTS BENEFITING FROM AGOMELATINE BASED ON EEG MEASUREMENTS” (Alto Neuroscience, Inc., priority 2023, published 2025)

How the values were obtained:
[1] = system: unselected depression patients; settings: Cipriani et al. 2018; cited from earlier work
[2] = system: patients with major depressive disorder; experiment: Open-label trials of adjunctive agomelatine 25 mg at bedtime; baseline EEG machine learning models predicting change in MADRS; assay type: in vivo, human
Description: The inventors conducted two parallel open-label clinical trials of agomelatine at 25 mg once at bedtime in patients with major depressive disorder (NCT05118750 and NCT05157945, whose data was pooled in these analyses). […] Patients were evaluated over the course of eight weeks of treatment.
EEG data were collected at rest (encompassing both eyes open and eyes closed conditions) prior to treatment using a 19-channel EEG system covering the conventional 10-20 electrode locations. A total of 107 patients with moderate to severe depression (MADRS 20 and PHQ-9≥10) had EEG data (107 with eyes open (REO) EEG, 105 with eyes closed (REC) EEG). Quality control assessments were conducted, yielding 105 REO patient datasets and 103 REC patient datasets. […] The training dataset consisted of 60 REO patient datasets and 60 REC patient datasets. The holdout set consisted of […] and […].
In order to compile these individual signals into a single EEG composite entropy model for prediction of treatment outcome, the inventors conducted 10-fold cross-validated machine learning using elastic net regularization against an outcome of high versus low response to agomelatine. Cross-validation divides the training dataset iteratively into 9/10 for training the machine learning model and 1/10 for evaluating the predictive utility of the model (i.e., participants left out of the training itself, though part of the aforementioned training dataset). The training sample is then divided in this way until each participant has been left out of the training subset.
The Cohen's d effect sizes at these weeks are all >0.4, indicating a substantial effect size for the prediction, especially considering that the meta-analytically calculated all-comer (i.e., unselected depression patients) effect size for the difference in treatment response to agomelatine (as monotherapy) versus placebo is d=0.26 (Cipriani et al., Lancet., 2018, 391(10128):1357-1366, PMID: 29477251).
In addition to sample entropy, the inventors developed similar machine learning models to test the predictive utility of a range of other EEG complexity measures, as well as other common EEG indices. […] Thus, certain complexity measures appear to carry consistent and strong prediction of agomelatine outcome.

COc1ccc2cccc(CCNC(C)=O)c2c1 [agomelatine, N-[2-(7-methoxynaphthalen-1-yl)ethyl]acetamide]
all-comer effect size d, treatment response to agomelatine (as monotherapy) versus placebo [1]: 0.26
Cohen's d effect size, predicted responders vs non-responders, change in MADRS ([2]; EEG sample entropy machine learning model, cross-validation left-out data of training dataset, all weeks): > 0.4
Cohen's d, prediction of agomelatine outcome ([2]; REC, Approximate Entropy, lower gamma, Week 1): 0.23
Cohen's d, prediction of agomelatine outcome ([2]; REC, Approximate Entropy, lower gamma, Week 2): 0.29
Cohen's d, prediction of agomelatine outcome ([2]; REC, Approximate Entropy, lower gamma, Week 4): 0.46
Cohen's d, prediction of agomelatine outcome ([2]; REC, Detrended Fluctuation Analysis, lower beta, Week 1): 0.49
Cohen's d, prediction of agomelatine outcome ([2]; REC, Detrended Fluctuation Analysis, lower beta, Week 2): 0.44
Cohen's d, prediction of agomelatine outcome ([2]; REC, Detrended Fluctuation Analysis, lower beta, Week 4): 0.41
Cohen's d, prediction of agomelatine outcome ([2]; REC, Detrended Fluctuation Analysis, upper beta, Week 1): 0.19
Cohen's d, prediction of agomelatine outcome ([2]; REC, Detrended Fluctuation Analysis, upper beta, Week 2): 0.20
Cohen's d, prediction of agomelatine outcome ([2]; REC, Detrended Fluctuation Analysis, upper beta, Week 4): 0.25
Cohen's d, prediction of agomelatine outcome ([2]; REC, Higuchi Fractal Dimension, lower beta, Week 1): 0.44
Cohen's d, prediction of agomelatine outcome ([2]; REC, Higuchi Fractal Dimension, lower beta, Week 2): 0.36
Cohen's d, prediction of agomelatine outcome ([2]; REC, Higuchi Fractal Dimension, lower beta, Week 4): 0.28
Cohen's d, prediction of agomelatine outcome ([2]; REC, Higuchi Fractal Dimension, lower gamma, Week 1): 0.64
Cohen's d, prediction of agomelatine outcome ([2]; REC, Higuchi Fractal Dimension, lower gamma, Week 2): 0.58
Cohen's d, prediction of agomelatine outcome ([2]; REC, Higuchi Fractal Dimension, lower gamma, Week 4): 0.57
Cohen's d, prediction of agomelatine outcome ([2]; REC, Higuchi Fractal Dimension, upper beta, Week 1): −0.29
Cohen's d, prediction of agomelatine outcome ([2]; REC, Higuchi Fractal Dimension, upper beta, Week 2): −0.20
Cohen's d, prediction of agomelatine outcome ([2]; REC, Higuchi Fractal Dimension, upper beta, Week 4): −0.05
Cohen's d, prediction of agomelatine outcome ([2]; REC, Higuchi Fractal Dimension, upper gamma, Week 1): 0.16
Cohen's d, prediction of agomelatine outcome ([2]; REC, Higuchi Fractal Dimension, upper gamma, Week 2): 0.16
Cohen's d, prediction of agomelatine outcome ([2]; REC, Higuchi Fractal Dimension, upper gamma, Week 4): 0.21
Cohen's d, prediction of agomelatine outcome ([2]; REC, Katz Fractal Dimension, lower beta, Week 1): 0.47
Cohen's d, prediction of agomelatine outcome ([2]; REC, Katz Fractal Dimension, lower beta, Week 2): 0.42
Cohen's d, prediction of agomelatine outcome ([2]; REC, Katz Fractal Dimension, lower beta, Week 4): 0.37
Cohen's d, prediction of agomelatine outcome ([2]; REC, Katz Fractal Dimension, lower gamma, Week 1): 0.25
Cohen's d, prediction of agomelatine outcome ([2]; REC, Katz Fractal Dimension, lower gamma, Week 2): 0.23
Cohen's d, prediction of agomelatine outcome ([2]; REC, Katz Fractal Dimension, lower gamma, Week 4): 0.23
Cohen's d, prediction of agomelatine outcome ([2]; REC, Katz Fractal Dimension, upper beta, Week 1): 0.42
Cohen's d, prediction of agomelatine outcome ([2]; REC, Katz Fractal Dimension, upper beta, Week 2): 0.40
Cohen's d, prediction of agomelatine outcome ([2]; REC, Katz Fractal Dimension, upper beta, Week 4): 0.42
Cohen's d, prediction of agomelatine outcome ([2]; REC, Katz Fractal Dimension, upper gamma, Week 1): 0.04
Cohen's d, prediction of agomelatine outcome ([2]; REC, Katz Fractal Dimension, upper gamma, Week 2): 0.10
Cohen's d, prediction of agomelatine outcome ([2]; REC, Katz Fractal Dimension, upper gamma, Week 4): 0.23
Cohen's d, prediction of agomelatine outcome ([2]; REC, Largest Lyapunov Exponent, upper alpha, Week 1): 0.10
Cohen's d, prediction of agomelatine outcome ([2]; REC, Largest Lyapunov Exponent, upper alpha, Week 2): 0.12
Cohen's d, prediction of agomelatine outcome ([2]; REC, Largest Lyapunov Exponent, upper alpha, Week 4): 0.18
Cohen's d, prediction of agomelatine outcome ([2]; REC, Largest Lyapunov Exponent, upper gamma, Week 1): −0.02
Cohen's d, prediction of agomelatine outcome ([2]; REC, Largest Lyapunov Exponent, upper gamma, Week 2): 0.08
Cohen's d, prediction of agomelatine outcome ([2]; REC, Largest Lyapunov Exponent, upper gamma, Week 4): 0.29
Cohen's d, prediction of agomelatine outcome ([2]; REC, Lempel-Ziv Complexity, lower gamma, Week 1): −0.06
Cohen's d, prediction of agomelatine outcome ([2]; REC, Lempel-Ziv Complexity, lower gamma, Week 2): 0.01
Cohen's d, prediction of agomelatine outcome ([2]; REC, Lempel-Ziv Complexity, lower gamma, Week 4): 0.15
Cohen's d, prediction of agomelatine outcome ([2]; REC, Lempel-Ziv Complexity, upper alpha, Week 1): 0.21
Cohen's d, prediction of agomelatine outcome ([2]; REC, Lempel-Ziv Complexity, upper alpha, Week 2): 0.17
Cohen's d, prediction of agomelatine outcome ([2]; REC, Lempel-Ziv Complexity, upper alpha, Week 4): 0.13
Cohen's d, prediction of agomelatine outcome ([2]; REC, Modified Multiscale Entropy, lower alpha, Week 1): 0.08
Cohen's d, prediction of agomelatine outcome ([2]; REC, Modified Multiscale Entropy, lower alpha, Week 2): 0.11
Cohen's d, prediction of agomelatine outcome ([2]; REC, Modified Multiscale Entropy, lower alpha, Week 4): 0.19
Cohen's d, prediction of agomelatine outcome ([2]; REC, Modified Multiscale Entropy, lower gamma, Week 1): −0.09
Cohen's d, prediction of agomelatine outcome ([2]; REC, Modified Multiscale Entropy, lower gamma, Week 2): 0.01
Cohen's d, prediction of agomelatine outcome ([2]; REC, Modified Multiscale Entropy, lower gamma, Week 4): 0.21
Cohen's d, prediction of agomelatine outcome ([2]; REC, Modified Multiscale Entropy, upper alpha, Week 1): 0.19
Cohen's d, prediction of agomelatine outcome ([2]; REC, Modified Multiscale Entropy, upper alpha, Week 2): 0.25
Cohen's d, prediction of agomelatine outcome ([2]; REC, Modified Multiscale Entropy, upper alpha, Week 4): 0.39
Cohen's d, prediction of agomelatine outcome ([2]; REC, Multiscale Entropy, upper alpha, Week 1): 0.05
Cohen's d, prediction of agomelatine outcome ([2]; REO, Approximate Entropy, lower gamma, Week 1): −0.15
Cohen's d, prediction of agomelatine outcome ([2]; REO, Approximate Entropy, lower gamma, Week 2): −0.05
Cohen's d, prediction of agomelatine outcome ([2]; REO, Approximate Entropy, lower gamma, Week 4): 0.09
Cohen's d, prediction of agomelatine outcome ([2]; REO, Detrended Fluctuation Analysis, upper gamma, Week 1): 0.37
Cohen's d, prediction of agomelatine outcome ([2]; REO, Detrended Fluctuation Analysis, upper gamma, Week 2): 0.33
Cohen's d, prediction of agomelatine outcome ([2]; REO, Detrended Fluctuation Analysis, upper gamma, Week 4): 0.32
Cohen's d, prediction of agomelatine outcome ([2]; REO, Higuchi Fractal Dimension, delta, Week 1): −0.15
Cohen's d, prediction of agomelatine outcome ([2]; REO, Higuchi Fractal Dimension, delta, Week 2): −0.05
Cohen's d, prediction of agomelatine outcome ([2]; REO, Higuchi Fractal Dimension, delta, Week 4): 0.12
Cohen's d, prediction of agomelatine outcome ([2]; REO, Higuchi Fractal Dimension, lower beta, Week 1): 0.03
Cohen's d, prediction of agomelatine outcome ([2]; REO, Higuchi Fractal Dimension, lower beta, Week 2): 0.03
Cohen's d, prediction of agomelatine outcome ([2]; REO, Higuchi Fractal Dimension, lower beta, Week 4): 0.05
Cohen's d, prediction of agomelatine outcome ([2]; REO, Higuchi Fractal Dimension, upper gamma, Week 1): 0.04
Cohen's d, prediction of agomelatine outcome ([2]; REO, Higuchi Fractal Dimension, upper gamma, Week 2): 0.06
Cohen's d, prediction of agomelatine outcome ([2]; REO, Higuchi Fractal Dimension, upper gamma, Week 4): 0.11
Cohen's d, prediction of agomelatine outcome ([2]; REO, Katz Fractal Dimension, delta, Week 1): 0.04
Cohen's d, prediction of agomelatine outcome ([2]; REO, Katz Fractal Dimension, delta, Week 2): 0.07
Cohen's d, prediction of agomelatine outcome ([2]; REO, Katz Fractal Dimension, delta, Week 4): 0.13
Cohen's d, prediction of agomelatine outcome ([2]; REO, Katz Fractal Dimension, lower beta, Week 1): 0.28
Cohen's d, prediction of agomelatine outcome ([2]; REO, Katz Fractal Dimension, lower beta, Week 2): 0.18
Cohen's d, prediction of agomelatine outcome ([2]; REO, Katz Fractal Dimension, lower beta, Week 4): 0.06
Cohen's d, prediction of agomelatine outcome ([2]; REO, Katz Fractal Dimension, upper beta, Week 1): 0.24
Cohen's d, prediction of agomelatine outcome ([2]; REO, Katz Fractal Dimension, upper beta, Week 2): 0.24
Cohen's d, prediction of agomelatine outcome ([2]; REO, Katz Fractal Dimension, upper beta, Week 4): 0.29
Cohen's d, prediction of agomelatine outcome ([2]; REO, Largest Lyapunov Exponent, upper alpha, Week 1): 0.03
Cohen's d, prediction of agomelatine outcome ([2]; REO, Largest Lyapunov Exponent, upper alpha, Week 2): 0.08
Cohen's d, prediction of agomelatine outcome ([2]; REO, Largest Lyapunov Exponent, upper alpha, Week 4): 0.17
Cohen's d, prediction of agomelatine outcome ([2]; REO, Largest Lyapunov Exponent, upper gamma, Week 1): −0.24
Cohen's d, prediction of agomelatine outcome ([2]; REO, Largest Lyapunov Exponent, upper gamma, Week 2): −0.11
Cohen's d, prediction of agomelatine outcome ([2]; REO, Largest Lyapunov Exponent, upper gamma, Week 4): 0.08
Cohen's d, prediction of agomelatine outcome ([2]; REO, Lempel-Ziv Complexity, lower gamma, Week 1): −0.24
Cohen's d, prediction of agomelatine outcome ([2]; REO, Lempel-Ziv Complexity, lower gamma, Week 2): −0.13
Cohen's d, prediction of agomelatine outcome ([2]; REO, Lempel-Ziv Complexity, lower gamma, Week 4): 0.02
Cohen's d, prediction of agomelatine outcome ([2]; REO, Lempel-Ziv Complexity, theta, Week 1): 0.13
Cohen's d, prediction of agomelatine outcome ([2]; REO, Lempel-Ziv Complexity, theta, Week 2): 0.14
Cohen's d, prediction of agomelatine outcome ([2]; REO, Lempel-Ziv Complexity, theta, Week 4): 0.17
Cohen's d, prediction of agomelatine outcome ([2]; REO, Lempel-Ziv Complexity, upper beta, Week 1): 0.19
Cohen's d, prediction of agomelatine outcome ([2]; REO, Lempel-Ziv Complexity, upper beta, Week 2): 0.21
Cohen's d, prediction of agomelatine outcome ([2]; REO, Lempel-Ziv Complexity, upper beta, Week 4): 0.30
Cohen's d, prediction of agomelatine outcome ([2]; REO, Modified Multiscale Entropy, upper beta, Week 1): 0.08
Cohen's d, prediction of agomelatine outcome ([2]; REO, Modified Multiscale Entropy, upper beta, Week 2): 0.15
Cohen's d, prediction of agomelatine outcome ([2]; REO, Modified Multiscale Entropy, upper beta, Week 4): 0.31
Cohen's d, prediction of agomelatine outcome ([2]; REO, Multiscale Entropy, lower gamma, Week 1): −0.41
Cohen's d, prediction of agomelatine outcome ([2]; REO, Multiscale Entropy, lower gamma, Week 2): −0.21
Cohen's d, prediction of agomelatine outcome ([2]; REO, Multiscale Entropy, lower gamma, Week 4): 0.05
MADRS change, high vs low Pz low-gamma sample entropy ([2]; z≥0.27, full study sample, all weeks): strong and statistically significant prediction of treatment outcome across all weeks
